In ChEMBL document CHEMBL1201862, “PubChem BioAssay data set” (2004):
Structures can show the parent of a compound that is named as a salt.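 A five-concentration, 48-hour dose response in 96-well plates underlies each endpoint, interpolated linearly between surrounding concentrations. At the GI50, growth is halved.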 Activity calls are given as the source filed them. Cut-off read from the data, not from the text of the source: active = GI50 up to about 1.1 µM and inactive = higher.

Assays:
Test in all cases: DTP human tumour cell line panel, 48 h
HCT-116 = system: HCT-116
SR = system: SR
OVCAR-4 = system: OVCAR-4
MDA-N = system: MDA-N
MDA-MB-231 = system: MDA-MB-231
BT-549 = system: BT-549
SF-295 = system: SF-295
T47D = system: T47D
UACC-257 = system: UACC-257
OVCAR-5 = system: OVCAR-5
LOX IMVI = system: LOX IMVI
786-0 = system: 786-0
OVCAR-3 = system: OVCAR-3
K562 = system: K562
SF-539 = system: SF-539
NCI-H460 = system: NCI-H460
Malme-3M = system: Malme-3M
SNB-75 = system: SNB-75
CCRF-CEM = system: CCRF-CEM
HL-60 = system: HL-60

Measured: GI50

Nc1nc(O)c2c(n1)NCN(CCCN1CCOCC1)C2
inactive: HCT-116 > 100 µM | SR > 100 µM | OVCAR-4 > 100 µM | MDA-N > 100 µM | MDA-MB-231 > 100 µM | BT-549 > 100 µM | SF-295 > 100 µM | T47D > 100 µM | UACC-257 > 100 µM | OVCAR-5 > 100 µM | LOX IMVI > 100 µM | 786-0 > 100 µM | OVCAR-3 55.3 µM | K562 > 100 µM | SF-539 > 100 µM | NCI-H460 > 100 µM | Malme-3M > 100 µM

O=C(CCc1ccc(O)c(O)c1)NCCc1cc(O)cc(O)c1
inactive: HCT-116 > 100 µM | SNB-75 > 100 µM | SR > 100 µM | MDA-N 23.8 µM | MDA-MB-231 > 100 µM | BT-549 > 100 µM | SF-295 > 100 µM | T47D > 100 µM | UACC-257 > 100 µM | OVCAR-5 > 100 µM | LOX IMVI 46 µM | CCRF-CEM 29.2 µM | HL-60 > 100 µM | 786-0 > 100 µM | OVCAR-3 > 100 µM | K562 25.7 µM | SF-539 > 100 µM | NCI-H460 > 100 µM

COc1ccc(-c2cc(-c3cc(C)cc(Br)c3O)no2)cc1
inactive: HCT-116 10.3 µM | SNB-75 2.86 µM | SR 67.5 µM | OVCAR-4 3.37 µM | MDA-N 23.6 µM | MDA-MB-231 12.4 µM | BT-549 14.9 µM | SF-295 3.45 µM | T47D 5.38 µM | UACC-257 11 µM | OVCAR-5 30.4 µM | LOX IMVI 6.03 µM | CCRF-CEM > 10 µM | HL-60 47.9 µM | 786-0 12 µM | OVCAR-3 6.38 µM | K562 14.1 µM | SF-539 5.74 µM | NCI-H460 5.58 µM

CN(N=O)C(=N)NC(=O)c1ccccc1
inactive: HCT-116 67.6 µM | SNB-75 51.5 µM | SR 4.33 µM | OVCAR-4 > 100 µM | MDA-N > 100 µM | MDA-MB-231 > 100 µM | BT-549 > 100 µM | SF-295 > 100 µM | T47D > 100 µM | UACC-257 > 100 µM | OVCAR-5 > 100 µM | LOX IMVI 49.2 µM | CCRF-CEM > 100 µM | 786-0 > 100 µM | OVCAR-3 > 100 µM | K562 > 100 µM | SF-539 62.1 µM | NCI-H460 19.3 µM | Malme-3M > 100 µM

COC(=O)/C=C/c1ccc2nncnc2c1.COC(=O)/C=C\c1ccc2nncnc2c1
inactive: HCT-116 81.5 µM | SNB-75 18.7 µM | SR 56.9 µM | OVCAR-4 > 100 µM | MDA-N 20.9 µM | MDA-MB-231 > 100 µM | BT-549 60.8 µM | SF-295 23.4 µM | T47D 98.4 µM | UACC-257 16.9 µM | OVCAR-5 > 100 µM | LOX IMVI 33.9 µM | CCRF-CEM > 100 µM | HL-60 96.4 µM | 786-0 > 100 µM | OVCAR-3 32.7 µM | K562 43 µM | SF-539 31.9 µM | NCI-H460 10 µM

CC(=O)O[C@H]1CC[C@H]2[C@@H]3CCC4=CC(=O)C=C[C@]4(O)[C@H]3CC[C@]12C
inactive: HCT-116 21.9 µM | SNB-75 14.7 µM | OVCAR-4 > 48.9 µM | MDA-N 29.9 µM | MDA-MB-231 > 82.8 µM | BT-549 43 µM | SF-295 16.6 µM | T47D 13.3 µM | UACC-257 18.4 µM | OVCAR-5 > 100 µM | LOX IMVI 12.9 µM | CCRF-CEM 13.5 µM | 786-0 50.6 µM | OVCAR-3 42.1 µM | K562 7.66 µM | SF-539 31.3 µM | NCI-H460 32.2 µM
active: SR 0.738 µM

O=C(SC1=NCCN1)c1cccc2ccccc12
inactive: HCT-116 41 µM | SNB-75 22.8 µM | OVCAR-4 59.8 µM | MDA-N 76 µM | MDA-MB-231 > 100 µM | BT-549 64.7 µM | SF-295 36.8 µM | T47D 44.9 µM | UACC-257 28.9 µM | OVCAR-5 > 100 µM | LOX IMVI > 100 µM | CCRF-CEM 21.8 µM | HL-60 23.8 µM | 786-0 67.5 µM | OVCAR-3 56.9 µM | K562 25.4 µM | SF-539 > 100 µM | NCI-H460 62.5 µM | Malme-3M 78.9 µM

C=C1C[C@@H]2O[C@H]3[C@H]4[C@@H](C[C@@H](C)[C@@H](OC(C)=O)[C@H]42)[C@@H](C)CO[C@@]3(C)[C@H](OC(=O)CCCCCCC)CC1=O
inactive: HCT-116 15.1 µM | SNB-75 12.1 µM | SR 16 µM | MDA-N 16.8 µM | MDA-MB-231 20.8 µM | BT-549 18.1 µM | SF-295 19.5 µM | T47D 15.4 µM | UACC-257 14.4 µM | OVCAR-5 7.29 µM | LOX IMVI 16.5 µM | CCRF-CEM 5.85 µM | 786-0 15.7 µM | OVCAR-3 18.2 µM | K562 > 10 µM | SF-539 22 µM | NCI-H460 11.9 µM

CC(=O)NNc1nc(C)c(C(/C=C/c2cccc([N+](=O)[O-])c2)=N/NC(=S)NN)s1
inactive: HCT-116 > 100 µM | SNB-75 > 100 µM | OVCAR-4 > 100 µM | MDA-N > 100 µM | MDA-MB-231 > 100 µM | BT-549 > 100 µM | SF-295 > 100 µM | T47D > 100 µM | UACC-257 > 100 µM | OVCAR-5 > 100 µM | LOX IMVI > 100 µM | CCRF-CEM > 100 µM | HL-60 > 100 µM | 786-0 > 100 µM | OVCAR-3 > 100 µM | K562 > 100 µM | SF-539 > 100 µM | NCI-H460 > 100 µM | Malme-3M > 100 µM

O=C1CCCNn2c(nc3ncccc3c2=O)N1
inactive: HCT-116 > 100 µM | SNB-75 30.2 µM | OVCAR-4 > 100 µM | MDA-N > 100 µM | MDA-MB-231 > 100 µM | BT-549 > 100 µM | SF-295 > 100 µM | T47D > 100 µM | UACC-257 > 100 µM | OVCAR-5 > 100 µM | LOX IMVI > 100 µM | CCRF-CEM > 100 µM | HL-60 > 100 µM | 786-0 > 100 µM | OVCAR-3 > 100 µM | K562 > 100 µM | SF-539 > 100 µM | NCI-H460 > 100 µM | Malme-3M > 100 µM

CC(C)C(C/C=C1/CC(CO)(COC(=O)C2CCCCC2)OC1=O)C(C)C (stereo not given)
inactive: HCT-116 17.5 µM | SNB-75 13.8 µM | SR 28 µM | OVCAR-4 19.8 µM | MDA-N 19.1 µM | MDA-MB-231 17 µM | BT-549 25.2 µM | SF-295 14.2 µM | T47D 21.3 µM | UACC-257 26.9 µM | OVCAR-5 18.7 µM | LOX IMVI 14.2 µM | CCRF-CEM 17.2 µM | 786-0 12.4 µM | OVCAR-3 18.5 µM | K562 6.79 µM | SF-539 14.2 µM | NCI-H460 20.2 µM | Malme-3M 17.3 µM

COC(=O)[C@H](COC(=O)/C=C/c1ccc(OC(C)=O)c(OC(C)=O)c1)NC(=O)/C=C/c1ccc(OC(C)=O)c(OC(C)=O)c1
inactive: HCT-116 16.7 µM | SNB-75 14.6 µM | OVCAR-4 17.4 µM | MDA-N 17.1 µM | MDA-MB-231 17.7 µM | BT-549 16.3 µM | T47D 2.81 µM | UACC-257 20.5 µM | OVCAR-5 23.4 µM | LOX IMVI 18.4 µM | CCRF-CEM 5.98 µM | HL-60 > 100 µM | 786-0 13.2 µM | OVCAR-3 16.4 µM | K562 > 100 µM | SF-539 45.1 µM | NCI-H460 22.4 µM | Malme-3M 5.09 µM

CC(C)=CCC[C@](C)(O[C@@H]1O[C@H](CO)[C@@H](O)[C@H](O)[C@H]1O)[C@H]1CC[C@]2(C)[C@@H]1[C@H](O)C[C@@H]1[C@@]3(C)CC[C@@H](O)C(C)(C)[C@@H]3[C@@H](O[C@@H]3O[C@H](CO)[C@@H](O)[C@H](O)[C@H]3O)C[C@]12C.C[C@@H]1O[C@@H](O[C@H]2[C@H](O[C@H]3C[C@]4(C)[C@H](C[C@H](O)[C@@H]5[C@@H]([C@@]6(C)CC[C@H](C(C)(C)O)O6)CC[C@]54C)[C@@]4(C)CC[C@H](O)C(C)(C)[C@H]34)O[C@H](CO)[C@@H](O)[C@@H]2O)[C@H](O)[C@H](O)[C@H]1O
inactive: HCT-116 > 100 µM | SNB-75 > 100 µM | SR > 100 µM | OVCAR-4 > 100 µM | MDA-N > 100 µM | MDA-MB-231 > 100 µM | BT-549 > 100 µM | SF-295 > 100 µM | T47D > 100 µM | UACC-257 > 100 µM | OVCAR-5 > 100 µM | LOX IMVI > 100 µM | CCRF-CEM > 100 µM | HL-60 > 100 µM | 786-0 > 100 µM | OVCAR-3 24.9 µM | K562 > 100 µM | SF-539 > 100 µM | NCI-H460 > 100 µM

CN1[C@@H]2C[C@@H](OC(=O)[C@H](CO)c3ccccc3)C[C@H]1[C@@H]1O[C@@H]12 [SCOPOLAMINE HYDROBROMIDE]
inactive: HCT-116 > 100 µM | SR > 100 µM | OVCAR-4 > 100 µM | MDA-N > 100 µM | MDA-MB-231 > 100 µM | BT-549 > 100 µM | T47D > 100 µM | UACC-257 > 100 µM | OVCAR-5 > 100 µM | LOX IMVI > 100 µM | CCRF-CEM > 100 µM | 786-0 > 100 µM | OVCAR-3 > 100 µM | K562 > 100 µM | Malme-3M > 100 µM
